In patent publication US4229438A, “Nonapeptides” (Takeda Chemical Industries, Ltd., priority 1978, dated 1980):
Residues, ends and D or L forms follow the SMILES beside them.

tested on: spleen cells of C3H/He mouse (23-26% albumin layer interface fraction); assay: Determination of theta antigen induction activity (procedure analogous to Komuro et al); format: cell-based; conditions: C3H/He mouse spleen cell fraction in RPMI-1640, incubated with peptide at 37° C. for 2 hours; lysis with anti(theta) serum and guinea-pig complement
Method: The theta antigen induction activity of the nonapeptide (I) is assayed by a procedure analogous to the procedure described in the article of Komuro et al [The Lancet, i, 740-743 (1973)]. The spleen is enucleated from a C3H/He mouse, 2-3 months old, and minced in a tissue culture fluid (RPMI-1640). The resulting spleen cell suspension is fractionated by discontinuous density gradient centrifugation using 10 to 35% bovine serum albumin. The cells migrating to the 23-26% albumin layer interface are collected and resuspended in RPMI-1640. To this cell suspension is added the peptide, the activity of which is to be determined, at a varying concentration and the mixture is incubated at 37° C. for 2 hours. If the peptide added be active, fresh theta antigen will appear on the cell surface. Therefore, the count of such cells is taken by lysing with an outbred mouse anti(theta) serum and guinea-pig complement. The theta-antigen induction activity is computed by means of the following equation. Theta-antigen induction activity(%)=(A-B/A)×100 where A is the count of theta antigen-negative cells in the absence of the test peptide and B is the count of theta antigen-negative cells when the test peptide has been added.

Row | Structure (SMILES) | The concentration required for showing at least 10% theta antigen induction activity [ng/mL]
1 | C[C@H](NC(=O)[C@@H]1CCC(=O)N1)C(=O)N[C@@H](CCCCN)C(=O)N[C@@H](CO)C(=O)N[C@@H](CCC(N)=O)C(=O)N[C@H](C)C(=O)NCC(=O)N[C@@H](CO)C(=O)N[C@@H](CC(N)=O)C(=O)O [Example 4, pGlu-Ala-Lys-Ser-Gln-(D)-Ala-Gly-Ser-Asn-OH] (HELM PEPTIDE1{[Glp].A.K.S.Q.[dA].G.S.N}$$$$V2.0) | 0.1 to 1
2 | C[C@H](NC(=O)[C@@H]1CCC(=O)N1)C(=O)N[C@@H](CCCCN)C(=O)N[C@@H](CO)C(=O)N[C@@H](CCC(N)=O)C(=O)NCC(=O)N[C@H](C)C(=O)N[C@@H](CO)C(=O)N[C@@H](CC(N)=O)C(=O)O [Example 3, pGlu-Ala-Lys-Ser-Gln-Gly-(D)-Ala-Ser-Asn-OH] (HELM PEPTIDE1{[Glp].A.K.S.Q.G.[dA].S.N}$$$$V2.0) | 1 to 10
3 | C[C@@H](NC(=O)[C@@H]1CCC(=O)N1)C(=O)N[C@@H](CCCCN)C(=O)N[C@@H](CO)C(=O)N[C@@H](CCC(N)=O)C(=O)NCC(=O)NCC(=O)N[C@@H](CO)C(=O)N[C@@H](CC(N)=O)C(=O)O [Example 1, pGlu-(D)-Ala-Lys-Ser-Gln-Gly-Gly-Ser-Asn-OH] (HELM PEPTIDE1{[Glp].[dA].K.S.Q.G.G.S.N}$$$$V2.0) | 1 to 10
